Data reported in patent US20260097133A1, “EPIGENETIC EDITING TOOL FOR TARGETING HEPATITIS B VIRUS GENE” (priority 2023, published 2026).

How the values were obtained:
[1] = test system: type D HBV X protein (HBx) reporter cell line; test: sgRNA lentiviral library screening, HBx reporter cell line (NGS reads in GFP-negative cells); format: cell-based; conditions: sgRNA in GFP-negative cell population, day 14 after transfection of EPIREG
Description: (§1) In this example, the type D HBV X protein (HBx), core antigen (HBcAg), and surface antigen (HBsAg) reporter cell lines were used for library screening. First, a sgRNA cell library of type D HBV gene was constructed using a reporter cell line according to the method described in example 1. The sgRNA library was packaged into lentivirus to obtain a sgRNA lentiviral library (carrying red fluorescence), the reporter cell line was infected with the lentiviral library, and the red fluorescence was sorted to obtain the sgRNA cell library. Each cell in this sorted cell library integrated a single sgRNA in the library while the cell itself carried a reporter sequence (carrying green fluorescence). The EPIREG tool described in example 2 (the amino acid sequence of the tool was SEQ ID NO: 1194) (carrying blue fluorescence) was transfected and delivered into a cell library carrying both sgRNA and reporter sequences. Red/green/blue fluorescent triple-positive cells were sorted using a flow cytometer and cultured long-term. The EPIREG transfected into the cells could work together with the sgRNA to silence GFP in the reporter. On the day 14 after transfection, the GFP-negative cell population in the cell library was sorted, the genomic DNA of the negative cell population was extracted for NGS sequencing. The sgRNAs with higher sequencing reads in the negative cell population were compared using the untreated cell library as a control reference, so as to obtain the candidate sgRNAs that could play an editing role corresponding to each reporter, respectively (the schematic diagram of this screening scheme is shown in FIG. 6, and the analysis method is referenced to the literature DOI: 10.1186/s13059-014-0554-4). The functionally validated sgRNAs for each reporter cell line are summarized in the following table (arranged by the starting position of the target sequence of each sgRNA).

[2] = test system: type D HBV core antigen (HBcAg) reporter cell line; test: sgRNA lentiviral library screening, HBcAg reporter cell line (NGS reads in GFP-negative cells); format: cell-based; conditions: sgRNA in GFP-negative cell population, day 14 after transfection of EPIREG
Description: as §1

257 (guide ATGGGCCATCAGCGCGTGCG; listed as DNA, chemistry not fully specified) [compound 257]
Log2 FC [1]: 6.5564

197 (guide AGGTCTGGAGCAAACATTAT; chemistry not given here) [compound 197]
Log2 FC [1]: 3.6817

1006 (guide TGACCAAGCCCCAGCCAGTG; listed as DNA, chemistry not fully specified) [compound 1006]
Log2 FC [1]: 7.0191
Log2 FC [2]: 4.2194

560 (guide CTGTGCCTTGGGTGGCTTTG; listed as DNA, chemistry not fully specified) [compound 560]
Log2 FC [2]: 2.7695

1132 (guide TTTACCCCGTTGCCCGGCAA; listed as DNA, chemistry not fully specified) [compound 1132]
Log2 FC [1]: 4.252
Log2 FC [2]: 2.1043

498 (guide CGGGGAGTCCGCGTAAAGAG; listed as DNA, chemistry not fully specified) [compound 498]
Log2 FC [1]: 2.939

841 (guide GTGAAAAAGTTGCATGGTGC; listed as DNA, chemistry not fully specified) [compound 841]
Log2 FC [2]: 2.0112

657 (guide GCAAACACTTGGCACAGACC; listed as DNA, chemistry not fully specified) [compound 657]
Log2 FC [1]: 3.2226
Log2 FC [2]: 1.9192

70 (guide ACAAGAGTTGCCTGAACTTT; listed as DNA, chemistry not fully specified) [compound 70]
Log2 FC [2]: 2.5329

120 (guide ACTACTAGGTCTCTAGATGC; chemistry not given here) [compound 120]
Log2 FC [2]: 2.9841

1065 (guide TGGTCGGTCGGAACGGCAGA; listed as DNA, chemistry not fully specified) [compound 1065]
Log2 FC [1]: 6.0793
Log2 FC [2]: 2.8985

225 (guide ATACCGCCTCAGCTCTGTAT; listed as DNA, chemistry not fully specified) [compound 225]
Log2 FC [2]: 3.966

450 (guide CCTGCGGACGACCCTTCTCG; listed as DNA, chemistry not fully specified) [compound 450]
Log2 FC [1]: 4.242

335 (guide CAGATGAGAAGGCACAGACG; listed as DNA, chemistry not fully specified) [compound 335]
Log2 FC [1]: 4.44

249 (guide ATGACCAAGCCCCAGCCAGT; listed as DNA, chemistry not fully specified) [compound 249]
Log2 FC [1]: 5.9752
Log2 FC [2]: 2.8648

200 (guide AGGTGCGCCCCGTGGTCGGT; listed as DNA, chemistry not fully specified) [compound 200]
Log2 FC [1]: 7.535

484 (guide CGCCGACGGGACGTAAACAA; listed as DNA, chemistry not fully specified) [compound 484]
Log2 FC [1]: 3.3079

305 (guide CACAGAAAGGCCTTGTAAGT; listed as DNA, chemistry not fully specified) [compound 305]
Log2 FC [1]: 4.9316
Log2 FC [2]: 2.1583

496 (guide CGGCTAGGAGTTCCGCAGTA; listed as DNA, chemistry not fully specified) [compound 496]
Log2 FC [1]: 7.3529
Log2 FC [2]: 2.9031

254 (guide ATGGATACGATGTATATTTG; listed as DNA, chemistry not fully specified) [compound 254]
Log2 FC [1]: 3.4564

958 (guide TCCTGCGGACGACCCTTCTC; listed as DNA, chemistry not fully specified) [compound 958]
Log2 FC [1]: 3.9999
Log2 FC [2]: 3.1878

113 (guide ACGATGTATATTTGCGGGAG; listed as DNA, chemistry not fully specified) [compound 113]
Log2 FC [2]: 2.0632

750 (guide GGCTTCCCGATACAGAGCTG; listed as DNA, chemistry not fully specified) [compound 750]
Log2 FC [2]: 4.6799

872 (guide TAAAGACTGGGAGGAGTTGG; listed as DNA, chemistry not fully specified) [compound 872]
Log2 FC [2]: 3.0933

357 (guide CATGACCAAGCCCCAGCCAG; listed as DNA, chemistry not fully specified) [compound 357]
Log2 FC [1]: 6.2753
Log2 FC [2]: 3.1523

39 (guide AACCCCCACTGGCTGGGGCT; listed as DNA, chemistry not fully specified) [compound 39]
Log2 FC [2]: 3.4538

539 (guide CTGACGCAACCCCCACTGGC; listed as DNA, chemistry not fully specified) [compound 539]
Log2 FC [1]: 3.1536

327 (guide CACTGGCTGGGGCTTGGTCA; listed as DNA, chemistry not fully specified) [compound 327]
Log2 FC [1]: 5.8386
Log2 FC [2]: 1.8664

1068 (guide TGGTGAGGTGAACAATGCTC; listed as DNA, chemistry not fully specified) [compound 1068]
Log2 FC [2]: 2.5736

788 (guide GGGTTGCGTCAGCAAACACT; listed as DNA, chemistry not fully specified) [compound 788]
Log2 FC [1]: 4.4031

735 (guide GGCACAGACCTGGCCGTTGC; listed as DNA, chemistry not fully specified) [compound 735]
Log2 FC [1]: 4.08

981 (guide TCTAGAAGATCTCGTACTGA; listed as DNA, chemistry not fully specified) [compound 981]
Log2 FC [2]: 2.1673

139 (guide AGACACCAAATACTCTATAA; listed as DNA, chemistry not fully specified) [compound 139]
Log2 FC [2]: 2.8391

1033 (guide TGCGAGCAAAACAAGCGGCT; listed as DNA, chemistry not fully specified) [compound 1033]
Log2 FC [1]: 3.1795

74 (guide ACAATGCTCAGGAGACTCTA; listed as DNA, chemistry not fully specified) [compound 74]
Log2 FC [2]: 2.1202

427 (guide CCGCAGGATTCAGCGCCGAC; listed as DNA, chemistry not fully specified) [compound 427]
Log2 FC [2]: 3.4136

1104 (guide TTCCCGATACAGAGCTGAGG; listed as DNA, chemistry not fully specified) [compound 1104]
Log2 FC [2]: 3.9205

81 (guide ACACGGTCCGGCAGATGAGA; listed as DNA, chemistry not fully specified) [compound 81]
Log2 FC [2]: 2.0776

650 (guide GATTGAATACATGCATACAA; listed as DNA, chemistry not fully specified) [compound 650]
Log2 FC [1]: 3.726

762 (guide GGGCAACGGGGTAAAGGTTC; listed as DNA, chemistry not fully specified) [compound 762]
Log2 FC [1]: 4.8522

628 (guide GAGGTGAAGCGAAGTGCACA; listed as DNA, chemistry not fully specified) [compound 628]
Log2 FC [2]: 3.2225

204 (guide AGGTTCCACGCACGCGCTGA; listed as DNA, chemistry not fully specified) [compound 204]
Log2 FC [1]: 3.0712
